Test results: patent US6353017B1, “Dipeptide nitriles” (Novartis AG, priority 1997, dated 2002)

- melting point: 152 to 153 °C
SMILES: COC(=O)c1cccc(OCCC(C#N)NC(=O)[C@H](Cc2cccc(C)c2)NC(=O)C(c2ccccc2)c2ccccc2)c1 (stereo partly drawn) [Example 305, N-[3-(3-(methoxycarbonyl)-phenoxy)-1-cyanopropyl]-3-methyl-Nα-(2,2-diphenylacetyl)-L-phenylalaninamide]
